According to US20210330611A1, “THERAPY FOR NEUROLOGICAL DISEASES/DISORDERS” (priority 2020, published 2021):
Counter-ions that a name gives are not always drawn. Like-named read-outs stand apart in the source and are kept apart here.

How the values were obtained:
[1] = test system: fibrin-induced microglia activation; test: Image-based assay of fibrin-induced microglia activation (HTS and dose response); type: cell-based, rat; conditions: primary microglia HTS, fibrin stimulation; for inhibition at 10 µM: Rattus norvegicus, Microglia, read-out: Fibrin % inhibition
[2] = test system: LPS-induced microglia activation; test: Image-based assay of LPS-induced microglia activation (HTS and dose response); type: cell-based, rat; conditions: for inhibition at 10 µM: Rattus norvegicus, Microglia, read-out: LPS % inhibition
[3] = test system: fibrin- and LPS-induced microglia activation; test: cells; type: cell-based, rat
primary rat microglia [4] = test system: primary rat microglia
primary rat microglia [5] = test: Cell toxicity (dead cells, size <150 μm2) in coated fibrin (cFib) assay; conditions: primary microglia HTS;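 note: share of dead cells sized under 150 µm2 at 10 µM in fibrin-stimulated microglia HTS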
[6] = primary microglia HTS, LPS stimulation, compounds at 10 μM
[7] = classification by fibrin and LPS inhibition, HTS at 10 μM
[8] = fibrin assay, dead cells (size <150 μm2), compounds at 10 μM
[9] = quadrant by fibrin and LPS inhibition, HTS at 10 μM
[10] = fibrin assay, dead cells (size <150 μm2)
[11] = cell size >800 μm2 as marker of activation
[12] = classification by fibrin and LPS inhibition in HTS
[13] = fibrin stimulation, cell size <150 μm2 as marker of toxicity

| Molecule | Quadrant (FIG. 5b) [3, 7] | Fibrin % cell toxicity (primary rat microglia [5]; [8]) [%] | inhibition at 10 µM ([1]; compounds at 10 μM) [%] | inhibition at 10 µM [2, 6] [%] | Quadrant (FIG. 5b) [3, 9] | LPS % cell toxicity (primary rat microglia [4]; rat) [%] | Fibrin % cell toxicity (primary rat microglia [5]; [10]) [%] | other results |
| --- | --- | --- | --- | --- | --- | --- | --- | --- |
| O=C1c2cccc(O)c2C(=O)c2c(O)cccc21 [Dantron, Danthron] | Q4 | 0 | – | – | – | – | – | Fibrin % inhibition ([1]; compounds at 10 μM): −9%; LPS % inhibition [2, 6]: 13%; LPS % cell toxicity (primary rat microglia [4]): 0% |
| CC(=O)c1ccc2c(c1)N(CCCN(C)C)c1ccccc1S2 [Acepromazine] | – | – | 9 | 31 | Q4 | 1 | 1 | – |
| Cc1cc(-c2ccc(/N=N/c3ccc4c(S(=O)(=O)O)cc(S(=O)(=O)O)c(N)c4c3O)c(C)c2)ccc1/N=N/c1ccc2c(S(=O)(=O)O)cc(S(=O)(=O)O)c(N)c2c1O [Evans Blue] | Q4 | 0 | -37 | 7 | – | 0 | – | – |
| C[C@@H]1C[C@H]2[C@@H]3CCC4=CC(=O)C=C[C@]4(C)[C@@]3(Cl)[C@@H](O)C[C@]2(C)[C@@]1(OC(=O)c1ccco1)C(=O)CCl [Mometasone Furoate] | – | – | 100 | 106 | Q2 | 4 | 3 | – |
| C[C@]12CC[C@H]3C(=CCc4cc(O)ccc43)[C@@H]1CCC2=O [Equilin] | Q4 | 0 | 1 | 15 | – | 0 | – | – |
| NC[C@H]1O[C@H](O[C@H]2[C@H](O)[C@@H](O[C@H]3O[C@H](CO)[C@@H](O)[C@H](N)[C@H]3O)[C@H](N)C[C@@H]2N)[C@H](N)[C@@H](O)[C@@H]1O.O=S(=O)(O)O [Becanamycin Sulfate, Bekanamycin Sulfate] | – | – | – | – | Q4 | – | 1 | Fibrin % inhibition ([1]; compounds at 10 μM): −10%; LPS % inhibition [2, 6]: 16%; LPS % cell toxicity (primary rat microglia [4]): 0% |
| Cyanocobalamin | Q4 | 1 | – | – | – | – | – | Fibrin % inhibition ([1]; compounds at 10 μM): −1%; LPS % inhibition [2, 6]: 11%; LPS % cell toxicity (primary rat microglia [4]): 0% |
| CN[C@@H]1[C@H](O[C@H]2[C@H](O[C@H]3[C@H](O)[C@@H](O)[C@H](NC(=N)N)[C@@H](O)[C@@H]3NC(=N)N)O[C@@H](C)[C@]2(O)CO)O[C@@H](CO)[C@H](O)[C@H]1O [Dihydrostreptomycin Sulfate] | Q4 | 1 | -7 | 12 | – | 0 | – | – |
| Nc1c(Br)cc(Br)cc1CN[C@H]1CC[C@H](O)CC1 [Ambroxol Hydrochloride] | – | – | -19 | 9 | Q4 | 0 | 0 | – |
| Cc1cc(=O)n(-c2ccccc2)n1C [Antipyrine] | – | – | -8 | 13 | Q4 | 1 | 0 | – |
| O=c1c2ccccc2[se]n1-c1ccccc1 [Ebselen] | Q4 | 0 | -49 | -1 | – | 0 | – | – |
| C=CC[C@]1(O)CC[C@H]2[C@@H]3CCC4=CC(=O)CCC4=C3C=C[C@@]21C [Altrenogest] | – | – | 6 | 15 | Q4 | 0 | 1 | – |
| CC1=NS(=O)(=O)c2cc(Cl)ccc2N1 [Diazoxide] | Q4 | 0 | 3 | 24 | – | 0 | – | – |
| Acetophenazine Maleate | – | – | – | – | Q4 | – | 1 | Fibrin % inhibition ([1]; compounds at 10 μM): 34%; LPS % inhibition [2, 6]: 15%; LPS % cell toxicity (primary rat microglia [4]): 0% |
| CC(N)C(=O)OC(C)(C)Cc1ccc(Cl)cc1.Cl (stereo not shown) [Alaproclate Hydrochloride, Alaproclate] | – | – | – | – | Q4 | – | 1 | Fibrin % inhibition ([1]; compounds at 10 μM): −7%; LPS % inhibition [2, 6]: 15%; LPS % cell toxicity (primary rat microglia [4]): 0% |
| NNC(=O)c1ccncc1.Nc1ccc(C(=O)O)c(O)c1 [Pasiniazid] | – | – | – | – | – | – | – | Fibrin % inhibition [1, 11]: −61%; LPS % inhibition [2]: 17%; Quadrant (FIG. 5b) [3, 12]: Q4; LPS % cell toxicity (primary rat microglia [4]): 0%; Fibrin % cell toxicity (primary rat microglia [5]; [13]): 1% |
| O=C(Nc1ccccc1)OCC(CN1CCCCC1)OC(=O)Nc1ccccc1 (stereo not shown) [Diperodon Hydrochloride] | Q4 | 1 | 42 | 26 | – | 1 | – | – |
| OCc1ccccn1 [Piconol] | – | – | – | – | – | 1 | – | inhibition at 10 µM [1, 11]: -1%; inhibition at 10 µM ([2]; 48 h): 26%; Quadrant (FIG. 5b) [3, 12]: Q4; Fibrin % cell toxicity (primary rat microglia [5]; [13]): 1% |

| Molecule | Quadrant (FIG. 5b) [3, 7] | Fibrin % cell toxicity (primary rat microglia [5]; [8]) [%] | inhibition at 10 µM ([1]; compounds at 10 μM) [%] | inhibition at 10 µM [2, 6] [%] | Quadrant (FIG. 5b) [3, 9] | LPS % cell toxicity (primary rat microglia [4]; rat) [%] | Fibrin % cell toxicity (primary rat microglia [5]; [10]) [%] | other results |
| --- | --- | --- | --- | --- | --- | --- | --- | --- |
| Arsenic Trioxide | – | – | – | – | Q4 | – | 1 | Fibrin % inhibition ([1]; compounds at 10 μM): 14%; LPS % inhibition [2, 6]: 14%; LPS % cell toxicity (primary rat microglia [4]): 0% |
| O=C1[C@H](CC[C@H](O)c2ccc(F)cc2)[C@@H](c2ccc(O)cc2)N1c1ccc(F)cc1 [Ezetimibe] | Q4 | 1 | 41 | 27 | – | 0 | – | – |
| CN[C@@H]1[C@H](O)[C@H](NC)[C@H]2O[C@@]3(O)C(=O)C[C@@H](C)O[C@H]3O[C@@H]2[C@H]1O [Spectinomycin] | – | – | – | – | – | 0 | – | inhibition at 10 µM [1, 11]: 14%; inhibition at 10 µM ([2]; 48 h): 19%; Quadrant (FIG. 5b) [3, 12]: Q4; Fibrin % cell toxicity (primary rat microglia [5]; [13]): 0% |
| CCCCOc1ccc(OCCCN2CCOCC2)cc1 [Pramocaine] | – | – | – | – | – | 0 | – | inhibition at 10 µM [1, 11]: 14%; inhibition at 10 µM ([2]; 48 h): 13%; Quadrant (FIG. 5b) [3, 12]: Q4; Fibrin % cell toxicity (primary rat microglia [5]; [13]): 0% |
| O=C(O)c1cn(-c2ccc(F)cc2)c2cc(N3CCNCC3)c(F)cc2c1=O [Sarafloxacin] | – | – | – | – | – | 0 | – | inhibition at 10 µM [1, 11]: 2%; inhibition at 10 µM ([2]; 48 h): 4%; Quadrant (FIG. 5b) [3, 12]: Q4; Fibrin % cell toxicity (primary rat microglia [5]; [13]): 0% |
| O=C(O)c1ccccc1C(=O)Nc1ccc(S(=O)(=O)Nc2nccs2)cc1 [Phthalylsulfathiazole] | – | – | – | – | – | 1 | – | inhibition at 10 µM [1, 11]: 3%; inhibition at 10 µM ([2]; 48 h): 13%; Quadrant (FIG. 5b) [3, 12]: Q4; Fibrin % cell toxicity (primary rat microglia [5]; [13]): 1% |
| OC(CCN1CCCCC1)(c1ccccc1)c1ccccc1 [Pridinol] | – | – | – | – | – | 0 | – | inhibition at 10 µM [1, 11]: -18%; inhibition at 10 µM ([2]; 48 h): 4%; Quadrant (FIG. 5b) [3, 12]: Q4; Fibrin % cell toxicity (primary rat microglia [5]; [13]): 1% |
| C/C=C(/C(=C/C)c1ccc(O)cc1)c1ccc(O)cc1 [Dienestrol] | Q4 | 1 | 17 | 21 | – | 0 | – | – |
| CCOC(=O)c1ccc(O)cc1 [Ethylparaben] | Q4 | 1 | -5 | 8 | – | 1 | – | – |
| CC(C)(CO)[C@@H](O)C(=O)NCCCO [Dexpanthenol] | Q4 | 0 | -1 | 11 | – | 0 | – | – |
| C#CCN(C)Cc1ccccc1 [Pargyline] | – | – | – | – | – | 0 | – | inhibition at 10 µM [1, 11]: -25%; inhibition at 10 µM ([2]; 48 h): 11%; Quadrant (FIG. 5b) [3, 12]: Q4; Fibrin % cell toxicity (primary rat microglia [5]; [13]): 1% |
| CC(=O)Oc1ccccc1C(=O)O [Acetylsalicylic acid] | – | – | -21 | 17 | Q4 | 0 | 1 | – |
| CCN1C[C@]2(COC)[C@H](O)C[C@H](OC)[C@@]34[C@@H]5C[C@@]6(O)[C@H](OC(=O)c7ccccc7)[C@@H]5[C@@](OC(C)=O)([C@@H]([C@H](OC)[C@H]23)[C@@H]14)[C@@H](O)[C@@H]6OC [Aconitine] | – | – | -23 | 12 | Q4 | 0 | 0 | – |
| C[C@@H]1O[C@@H](OC[C@H]2O[C@@H](Oc3c(-c4ccc(O)c(O)c4)oc4cc(O)cc(O)c4c3=O)[C@H](O)[C@@H](O)[C@@H]2O)[C@H](O)[C@H](O)[C@H]1O [Rutin] | – | – | – | – | – | 0 | – | inhibition at 10 µM [1, 11]: 1%; inhibition at 10 µM ([2]; 48 h): 18%; Quadrant (FIG. 5b) [3, 12]: Q4; Fibrin % cell toxicity (primary rat microglia [5]; [13]): 1% |
| CNCC(=O)c1ccc(O)c(O)c1.Cl [Adrenolone Hydrochloride] | – | – | – | – | Q4 | – | 0 | Fibrin % inhibition ([1]; compounds at 10 μM): 28%; LPS % inhibition [2, 6]: 32%; LPS % cell toxicity (primary rat microglia [4]): 0% |
| O=C1c2c(O)cccc2Cc2cccc(O)c21 [Anthralin] | – | – | -10 | 13 | Q4 | 1 | 1 | – |
| Cc1nnc2n1-c1ccc(Cl)cc1C(c1ccccc1)=NC2 [Alprazolam] | – | – | 33 | 20 | Q4 | 0 | 1 | – |
